Assay results taken from the NIST ThermoML archive (doi:10.1021/je100707s).
“And” between values parts separate entries of the source, which are not always exact repeats. Identical values can stand only once.

Conditions: Gas, Bellows volumetry

F/C=C/C(F)(F)F [trans-1,3,3,3-tetrafluoropropene]
Conditions | mass density
310 K, 657 kPa | 34.36 kg/m3
310 K, 669 kPa | 35.06 kg/m3
310 K, 681 kPa | 35.86 kg/m3
310 K, 695 kPa | 36.78 kg/m3
320 K, 691 kPa | 34.42 kg/m3
320 K, 701 kPa | 35.05 kg/m3
320 K, 716 kPa | 35.92 kg/m3
320 K, 730 kPa | 36.8 kg/m3
320 K, 743 kPa | 37.6 kg/m3
320 K, 759 kPa | 38.61 kg/m3
320 K, 775 kPa | 39.62 kg/m3
320 K, 791 kPa | 40.64 kg/m3
320 K, 808 kPa | 41.76 kg/m3
320 K, 823 kPa | 42.77 kg/m3
320 K, 837 kPa | 43.67 kg/m3
320 K, 851 kPa | 44.36 kg/m3
320 K, 866 kPa | 45.45 kg/m3
320 K, 881 kPa | 46.49 kg/m3
320 K, 899 kPa | 47.75 kg/m3
320 K, 910 kPa | 48.63 kg/m3
330 K, 718 kPa | 34.26 kg/m3
330 K, 731 kPa | 34.99 kg/m3
330 K, 746 kPa | 35.85 kg/m3
330 K, 762 kPa | 36.76 kg/m3
330 K, 778 kPa | 37.66 kg/m3
330 K, 792 kPa | 38.48 kg/m3
330 K, 810 kPa | 39.52 kg/m3
330 K, 828 kPa | 40.65 kg/m3
330 K, 844 kPa | 41.61 kg/m3
330 K, 866 kPa | 42.95 kg/m3
330 K, 893 kPa | 44.43 kg/m3
330 K, 908 kPa | 45.39 kg/m3
330 K, 927 kPa | 46.54 kg/m3
330 K, 943 kPa | 47.55 kg/m3
330 K, 961 kPa | 48.73 kg/m3
330 K, 981 kPa | 50.03 kg/m3
330 K, 1001 kPa | 51.36 kg/m3
330 K, 1020 kPa | 52.67 kg/m3
330 K, 1041 kPa | 54.12 kg/m3
330 K, 1063 kPa | 55.64 kg/m3
330 K, 1075 kPa | 56.44 kg/m3
330 K, 1097 kPa | 57.98 kg/m3
330 K, 1113 kPa | 59.21 kg/m3
330 K, 1139 kPa | 61.03 kg/m3
330 K, 1165 kPa | 63.02 kg/m3
340 K, 747 kPa | 34.24 kg/m3
340 K, 762 kPa | 35.03 kg/m3
340 K, 778 kPa | 35.89 kg/m3
340 K, 794 kPa | 36.75 kg/m3
340 K, 810 kPa | 37.63 kg/m3
340 K, 827 kPa | 38.54 kg/m3
340 K, 845 kPa | 39.55 kg/m3
340 K, 864 kPa | 40.55 kg/m3
340 K, 882 kPa | 41.66 kg/m3
340 K, 903 kPa | 42.85 kg/m3
340 K, 921 kPa | 43.82 kg/m3
340 K, 933 kPa | 44.41 kg/m3
340 K, 953 kPa | 45.51 kg/m3
340 K, 971 kPa | 46.56 kg/m3
340 K, 989 kPa | 47.62 kg/m3
340 K, 1008 kPa | 48.82 kg/m3
340 K, 1030 kPa | 50.12 kg/m3
340 K, 1049 kPa | 51.33 kg/m3
340 K, 1069 kPa | 52.63 kg/m3
340 K, 1090 kPa | 53.99 kg/m3
340 K, 1117 kPa | 55.66 kg/m3
340 K, 1134 kPa | 56.71 kg/m3
340 K, 1154 kPa | 58.04 kg/m3
340 K, 1175 kPa | 59.4 kg/m3
340 K, 1196 kPa | 60.76 kg/m3
340 K, 1218 kPa | 62.25 kg/m3
340 K, 1238 kPa | 63.68 kg/m3
340 K, 1262 kPa | 65.39 kg/m3
340 K, 1284 kPa | 67.01 kg/m3
340 K, 1305 kPa | 68.59 kg/m3
340 K, 1308 kPa | 68.83 kg/m3
340 K, 1331 kPa | 70.6 kg/m3 and 70.59 kg/m3
340 K, 1354 kPa | 72.27 kg/m3
340 K, 1356 kPa | 72.51 kg/m3
340 K, 1378 kPa | 74.19 kg/m3
340 K, 1384 kPa | 74.55 kg/m3
340 K, 1398 kPa | 75.77 kg/m3
340 K, 1420 kPa | 77.51 kg/m3
340 K, 1441 kPa | 79.28 kg/m3
340 K, 1465 kPa | 81.46 kg/m3
340 K, 1482 kPa | 83.02 kg/m3
340 K, 1490 kPa | 83.71 kg/m3
350 K, 777 kPa | 34.25 kg/m3
350 K, 794 kPa | 35.1 kg/m3
350 K, 809 kPa | 35.85 kg/m3
350 K, 824 kPa | 36.66 kg/m3
350 K, 841 kPa | 37.55 kg/m3
350 K, 861 kPa | 38.6 kg/m3
350 K, 880 kPa | 39.57 kg/m3
350 K, 899 kPa | 40.59 kg/m3
350 K, 921 kPa | 41.8 kg/m3
350 K, 943 kPa | 42.97 kg/m3
350 K, 974 kPa | 44.44 kg/m3
350 K, 992 kPa | 45.42 kg/m3
350 K, 1009 kPa | 46.4 kg/m3
350 K, 1033 kPa | 47.69 kg/m3
